Experimental data published in PubChem BioAssay (NCI).
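Tested at 5 concentrations; 48 h exposure; 96-well plates; endpoints linearly interpolated, else capped at highest concentration. GI50 marks 50% less growth. At the TGI there is no net growth.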

Experiments:
Experiment in all cases: NCI tumour cell line growth inhibition, 48 h
[1] = test system: SNB-75 CNS
[2] = test system: M14 melanoma
[3] = test system: UO-31 renal
[4] = test system: T-47D breast
[5] = test system: PC-3 prostate
[6] = test system: U251 CNS
[7] = test system: ACHN renal
[8] = test system: SF-268 CNS
[9] = test system: SR leukemia
[10] = test system: A549 NSCLC
[11] = test system: SK-MEL-28 melanoma
[12] = test system: MOLT-4 leukemia
[13] = test system: CAKI-1 renal
[14] = test system: SK-OV-3 ovarian
[15] = test system: NCI-H23 lung
[16] = test system: OVCAR-3 ovarian
[17] = test system: HOP-92 NSCLC
[18] = test system: OVCAR-8 ovarian
[19] = test system: COLO 205 colon
[20] = test system: EKVX NSCLC
[21] = test system: HCC-2998 colon
[22] = test system: SF-295 CNS
[23] = test system: HOP-62 NSCLC
[24] = test system: MDA-MB-231 breast
[25] = test system: A498 renal
[26] = test system: NCI-H226 lung
[27] = test system: OVCAR-4 ovarian
[28] = test system: HCT-116 colon
[29] = test system: HS 578T breast
[30] = test system: CCRF-CEM leukemia
[31] = test system: K-562 leukemia
[32] = test system: 786-0 renal
[33] = test system: LOX IMVI melanoma
[34] = test system: HT29 colon
[35] = test system: MDA-MB-435
[36] = test system: KM12 colon
[37] = test system: UACC-62 melanoma
[38] = test system: RPMI-8226 leukemia
[39] = test system: MALME-3M melanoma
[40] = test system: RXF 393 renal
[41] = test system: DU-145 prostate
[42] = test system: NCI-H460 lung
[43] = test system: SK-MEL-2 melanoma
[44] = test system: NCI/ADR-RES ovarian
[45] = test system: OVCAR-5 ovarian
[46] = test system: TK-10 renal
[47] = test system: BT-549 breast
[48] = test system: SK-MEL-5 melanoma
[49] = test system: IGROV1 ovarian
[50] = test system: SNB-19 CNS
[51] = test system: HL-60(TB) leukemia
[52] = test system: UACC-257 melanoma
[53] = test system: HCT-15 colon
[54] = test system: SW-620 colon
[55] = test system: NCI-H522 lung
[56] = test system: MCF7 breast
[57] = test system: SN12C renal
[58] = test system: SF-539 CNS

## Cc1ccc(SC[C@@]2(C(F)F)NC(=O)NC2=O)cc1
[1]
  TGI: > 100 µM
[2]
  TGI: > 100 µM
[3]
  TGI: > 100 µM
[4]
  TGI: > 100 µM
[5]
  TGI: > 100 µM
[6]
  TGI: > 100 µM
[7]
  TGI: > 100 µM
[8]
  TGI: > 100 µM
[9]
  TGI: > 100 µM
[10]
  TGI: > 100 µM
[11]
  TGI: > 100 µM
[12]
  TGI: > 100 µM
[13]
  TGI: > 100 µM
[14]
  TGI: > 100 µM
[15]
  TGI: > 100 µM
[16]
  TGI: > 100 µM
[17]
  TGI: > 100 µM
[18]
  TGI: > 100 µM
[19]
  TGI: > 100 µM
[20]
  TGI: > 100 µM
[21]
  TGI: > 100 µM
[22]
  TGI: > 100 µM
[23]
  TGI: > 100 µM
[24]
  TGI: > 100 µM
[25]
  TGI: > 100 µM
[26]
  TGI: > 100 µM
[27]
  TGI: > 100 µM
[28]
  TGI: > 100 µM
[29]
  TGI: > 100 µM
[30]
  TGI: > 100 µM
[31]
  TGI: > 100 µM
[32]
  TGI: > 100 µM
[33]
  TGI: > 100 µM
[34]
  TGI: > 100 µM
[35]
  TGI: > 100 µM
[36]
  TGI: > 100 µM
[37]
  TGI: > 100 µM
[38]
  TGI: > 100 µM
[39]
  TGI: > 100 µM
[40]
  TGI: > 100 µM
[41]
  TGI: > 100 µM
[42]
  TGI: > 100 µM
[43]
  TGI: > 100 µM
[44]
  TGI: > 100 µM
[45]
  TGI: > 100 µM
[46]
  TGI: > 100 µM
[47]
  TGI: > 100 µM
[48]
  TGI: > 100 µM
[49]
  TGI: > 100 µM
[50]
  TGI: > 100 µM
[51]
  TGI: > 100 µM
[52]
  TGI: > 100 µM
[53]
  TGI: > 100 µM
[54]
  TGI: > 100 µM
[55]
  TGI: > 100 µM

## C/C=C/[C@H]1O[C@@](O)([C@@H](C)[C@H](O)[C@H](C)[C@H]2OC(=O)/C(OC)=C/C(C)=C/[C@@H](C)[C@@H](O)[C@@H](CC)[C@@H](O)[C@H](C)C/C(C)=C/C=C/[C@@H]2OC)C[C@H](OC2CC(O)C(OC(N)=O)C(C)O2)[C@@H]1C (some centres undefined)
[1]
  TGI: 21.9 µM
[2]
  TGI: 0.0387 µM
[4]
  TGI: 2.12 µM
[5]
  TGI: 15.1 µM
[6]
  TGI: 17.4 µM
[7]
  TGI: 16.7 µM
[8]
  TGI: 25 µM
[10]
  TGI: 17.7 µM
[11]
  TGI: 20.4 µM
[13]
  TGI: 14.4 µM
[14]
  TGI: 25.4 µM
[15]
  TGI: 26.7 µM
[16]
  TGI: 17.2 µM
[17]
  TGI: 2.4 µM
[18]
  TGI: 21.2 µM
[19]
  TGI: 4.91 µM
[20]
  TGI: 20.5 µM
[21]
  TGI: 18.6 µM
[22]
  TGI: 0.893 µM
[23]
  TGI: 1.11 µM
[24]
  TGI: 22.7 µM
[25]
  TGI: 33.1 µM
[27]
  TGI: 20.8 µM
[28]
  TGI: 14 µM
[29]
  TGI: 48 µM
[30]
  TGI: 0.723 µM
[31]
  TGI: 0.772 µM
[32]
  TGI: 15.7 µM
[33]
  TGI: 0.0614 µM
[34]
  TGI: 1.59 µM
[35]
  TGI: 14.8 µM
[36]
  TGI: 17.4 µM
[37]
  TGI: 13.2 µM
[38]
  TGI: 0.205 µM
[39]
  TGI: 0.73 µM
[40]
  TGI: 37 µM
[41]
  TGI: 21.6 µM
[42]
  TGI: 14.4 µM
[43]
  TGI: 3.22 µM
[44]
  TGI: 26.8 µM
[56]
  TGI: 16.9 µM
[45]
  TGI: 25.7 µM
[46]
  TGI: 31.7 µM
[47]
  TGI: 19.7 µM
[48]
  TGI: 0.231 µM
[49]
  TGI: 20.9 µM
[50]
  TGI: 23.7 µM
[57]
  TGI: 23.5 µM
[52]
  TGI: 0.568 µM
[53]
  TGI: 12.6 µM
[54]
  TGI: 15.3 µM
[55]
  TGI: 7.39 µM

## C=C1C(=O)O[C@H]2[C@H]1CC/C(CNC(=O)/C=C/c1ccccc1)=C\CC[C@@]1(C)O[C@@H]21
[1]
  GI50: 1.67 µM
  TGI: 4.74 µM
[2]
  GI50: 1.15 µM
  TGI: 3.23 µM
[3]
  GI50: 1.21 µM
  TGI: 2.56 µM
[4]
  GI50: 1.44 µM
  TGI: 4.3 µM
[5]
  GI50: 1.92 µM
  TGI: 4.15 µM
[6]
  GI50: 1.77 µM
  TGI: 3.55 µM
[7]
  GI50: 0.755 µM
  TGI: 2.03 µM
[8]
  GI50: 2.86 µM
  TGI: 8.88 µM
[9]
  GI50: 0.38 µM
  TGI: 4.97 µM
[10]
  GI50: 4.39 µM
  TGI: 19 µM
[11]
  GI50: 1.48 µM
  TGI: 4.18 µM
[12]
  GI50: 1.47 µM
  TGI: 5.22 µM
[13]
  GI50: 1.17 µM
  TGI: 2.49 µM
[14]
  GI50: 13.2 µM
  TGI: 26 µM
[15]
  GI50: 1.73 µM
  TGI: 3.9 µM
[16]
  GI50: 0.558 µM
  TGI: 1.83 µM
[17]
  GI50: 1.46 µM
  TGI: 3.38 µM
[18]
  GI50: 2.44 µM
  TGI: 9.78 µM
[19]
  GI50: 0.966 µM
  TGI: 2.6 µM
[20]
  GI50: 1.65 µM
  TGI: 4.51 µM
[21]
  GI50: 1.78 µM
  TGI: 3.31 µM
[22]
  GI50: 5.25 µM
  TGI: 18.7 µM
[23]
  GI50: 3.37 µM
  TGI: 14 µM
[24]
  GI50: 1.59 µM
  TGI: 3.08 µM
[25]
  GI50: 1.96 µM
  TGI: 4 µM
[26]
  GI50: 2.5 µM
  TGI: 6.59 µM
[27]
  GI50: 1.51 µM
  TGI: 4.14 µM
[28]
  GI50: 0.465 µM
  TGI: 1.75 µM
[29]
  GI50: 4.21 µM
  TGI: 37 µM
[30]
  GI50: 0.342 µM
  TGI: 1.3 µM
[31]
  GI50: 0.551 µM
  TGI: 7.09 µM
[32]
  GI50: 1.48 µM
  TGI: 3.69 µM
[33]
  GI50: 0.997 µM
  TGI: 2.29 µM
[34]
  GI50: 0.754 µM
  TGI: 3.04 µM
[35]
  GI50: 1.35 µM
  TGI: 6.41 µM
[36]
  GI50: 4.94 µM
  TGI: 16.7 µM
[37]
  GI50: 1.37 µM
  TGI: 2.76 µM
[38]
  GI50: 0.71 µM
  TGI: 3.9 µM
[39]
  GI50: 1.45 µM
  TGI: 3.29 µM
[40]
  GI50: 0.864 µM
  TGI: 2.15 µM
[41]
  GI50: 0.603 µM
  TGI: 1.88 µM
[42]
  GI50: 2.18 µM
  TGI: 5.05 µM
[43]
  GI50: 1.49 µM
  TGI: 3.41 µM
[44]
  GI50: 3.29 µM
  TGI: 14.5 µM
[45]
  GI50: 1.61 µM
  TGI: 4.27 µM
[46]
  GI50: 1.42 µM
  TGI: 3.03 µM
[47]
  GI50: 1.46 µM
  TGI: 3.47 µM
[48]
  GI50: 1.68 µM
  TGI: 3.06 µM
[49]
  GI50: 1.7 µM
  TGI: 5.01 µM
[50]
  GI50: 2.39 µM
  TGI: 10.9 µM
[57]
  GI50: 1.15 µM
  TGI: 2.79 µM
[58]
  GI50: 0.964 µM
  TGI: 2.37 µM
[52]
  GI50: 1.53 µM
  TGI: 3.99 µM
[53]
  GI50: 0.672 µM
  TGI: 2.06 µM
[54]
  GI50: 0.577 µM
  TGI: 2.32 µM
[55]
  GI50: 0.357 µM
  TGI: 1.71 µM
